Test results taken from article PMC11684002 (Journal of medicinal chemistry, 2020).
pEC50: −log10 of the molar value.

What was measured:
Photostationary states = format: physicochemical; conditions: for PSS, % trans-isomer, dark: dark-adapted
[1] = target: T1, human PPARα ligand binding domain (Gal4 hybrid) (Homo sapiens, UniProt Q07869); assay: Gal4 hybrid reporter gene assay, PPARα; conditions: trans-isomer in the dark, HEK293T
T1 sequence (Q07869 239-466 limits assumed): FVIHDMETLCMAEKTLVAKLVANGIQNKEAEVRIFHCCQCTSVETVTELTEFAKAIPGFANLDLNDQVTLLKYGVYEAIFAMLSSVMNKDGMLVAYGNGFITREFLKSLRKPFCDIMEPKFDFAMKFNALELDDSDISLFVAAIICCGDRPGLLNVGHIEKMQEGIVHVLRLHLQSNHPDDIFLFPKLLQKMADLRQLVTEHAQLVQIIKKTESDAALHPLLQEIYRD

PPARγ = conditions: read-out: PPARγ agonist EC50; cited from earlier work
[2] = tested on: human PPAR response element (PPRE), endogenous PPARγ; assay: PPRE reporter gene assay in PPARγ expressing HepG2 cells; format: cell-based; conditions: trans-isomer
[3] = after 365 nm illumination, CDCl3
[4] = after 460 nm illumination, CDCl3

| SMILES | PSS, % trans-isomer, 365 nm (Photostationary states; [3]) [%] | PSS, % trans-isomer, 460 nm (Photostationary states; [4]) [%] | PSS, % trans-isomer, dark (Photostationary states; CDCl3) [%] | pEC50 (PPARγ) | other results |
| --- | --- | --- | --- | --- | --- |
| O=C1NC(=O)C(Cc2ccc(/N=N/c3ccccc3)cc2)S1 (stereo not shown) [AzoRosi, (E)-5-(4-(phenyldiazenyl)benzyl)thiazolidine-2,4-dione] | 4 | 80 | 100 |  | PPARα activation at 10 μM [1]: 8% activation at 10 μM |
| O=C1NC(=S)NC(=O)C1=Cc1ccc(OCc2ccccc2)c(Cl)c1 [MDG548] |  |  |  | 6.67 |  |
| O=C(c1ccccc1)c1ccccc1N[C@@H](Cc1ccc(/N=N/c2ccccc2)cc1)C(=O)O [AzoGW1929, (S,E)-2-((2-benzoylphenyl)amino)-3-(4-(phenyldiazenyl)phenyl)propanoic acid] |  |  |  |  | PSS, % trans-isomer, 365 nm (Photostationary states; after 365 nm illumination for five minutes, MeOD-d4): 67%; PSS, % trans-isomer, 460 nm (Photostationary states; after 460 nm illumination for five minutes, MeOD-d4): 76%; PSS, % trans-isomer, dark (Photostationary states; MeOD-d4): 95% |
| Cc1ccccc1-c1ccc(/N=N/c2ccc(CC3SC(=O)NC3=O)cc2)cc1 (stereo not shown) [AzoRosi-4, (E)-5-(4-((2′-methyl-[1,1′-biphenyl]-4-yl)diazenyl)benzyl)thiazolidine-2,4-dione] | 23 | 83 | 99 |  | PPRE activation at 10 μM [2]: some PPRE activation was observed |
